Measurements taken from patent publication US20030153618A1, “Treatment and prevention of herpes simplex infections” (priority 1999, published 2003).

Key:
HSV, Type II = experiment: Direct plaque-forming unit (PFU) count in BSC cells in defined media with set lysine (or derivative):arginine ratio; type: cell-based; conditions: average of three tests
Experimental: Absorbed virons were absorbed in susceptible cells in chemically defined media and the number of plaques made were counted. (See Davis, B. D., et al., Microbiology, 2nd Ed., Harper & Row, 1973, Part V, and sources cited therein for procedural details and discussion of the plaque method.)
The cell line chosen was green monkey kidney cells (BSC) that have been passed greater than 41 times. […] The virons were added to a confluent lawn of BSC cells and allowed to absorb at 25° C. for one hour. The unabsorbed virons and the media were removed by washing three times in PBS. […] The control media contained a lysine/arginine ratio of 1:1. The plaques were counted when easily readable. Flasks are done in triplicate.

Herpes simplex II virus = experiment: Back titration plaque assay: PFU counts at stated amounts of compound under test and arginine; type: cell-based, Herpes simplex II virus (BSC cells)
Experimental: The following experiments were conducted by back titration: Herpes simplex II virus from laboratory stocks was used. BSC cells were grown to confluence in Eagles medium with 15% fetal calf serum, 150 units per milliliter of penicillin and 100 micrograms per milliliter of streptomycin. The cultures were inoculated with 500 PFU of HS II. The virons were allowed to absorb for one hour at 25° C. The tissue cultures were then washed three times with sterile PBS to remove excess media and non-absorbed virons. The cells were then incubated at 37° C. until four-plus cytopathic effects were observed. The cells were then disrupted by slow freeze-thaw two times. The suspension was then clarified by slow speed centrifugation at 4° C. The supemanant suspension was then added to confluent BSC cultures. After one hour absorption, the cells were washed with PBS twice. The cells were overlaid in defined reagent (in triplicate) Eagles media in noble agar. The cells were then incubated at 37° C. until the plaques were easily counted, usually 40 t 72 hours. the cells were then washed two times with PBS and then fixed with 10% H2CO and a 2% sodium acetate. The cells were then stained in 0.1% crystal violet in ethanol. In the tables which follow the concentration of the compound to be tested, in micrograms per milliliter, is listed across the top of the table and the concentration of arginine in micrograms per milliliter is listed down the left side of the table, the count of plaque-forming units being shown in the matrix.

CC(CCN)CC(N)C(=O)O (stereo not drawn) [4-Methyl lysine]
P.F.U. Count (HSV, Type II; Compound Ratio to Arginine 10:1): 541 | P.F.U. Count (HSV, Type II; Compound Ratio to Arginine 100:1): 140 | P.F.U. Count (Herpes simplex II virus; compound 10 μg/ml, arginine 0 μg/ml): 37 | P.F.U. Count (Herpes simplex II virus; compound 10 μg/ml, arginine 2.5 μg/ml): 110 | P.F.U. Count (Herpes simplex II virus; compound 10 μg/ml, arginine 5.0 μg/ml): 3.7 × 10^3 | P.F.U. Count (Herpes simplex II virus; compound 10 μg/ml, arginine 7.5 μg/ml): 7.2 × 10^4 | P.F.U. Count (Herpes simplex II virus; compound 10 μg/ml, arginine 10 μg/ml): 9.6 × 10^4 | P.F.U. Count (Herpes simplex II virus; compound 10 μg/ml, arginine 15 μg/ml): 2.3 × 10^5 | P.F.U. Count (Herpes simplex II virus; compound 10 μg/ml, arginine 20 μg/ml): 3.1 × 10^5 | P.F.U. Count (Herpes simplex II virus; compound 10 μg/ml, arginine 25 μg/ml): 3.3 × 10^5 | P.F.U. Count (Herpes simplex II virus; compound 25 μg/ml, arginine 0 μg/ml): 10 | P.F.U. Count (Herpes simplex II virus; compound 25 μg/ml, arginine 2.5 μg/ml): 74 | P.F.U. Count (Herpes simplex II virus; compound 25 μg/ml, arginine 5.0 μg/ml): 310 | P.F.U. Count (Herpes simplex II virus; compound 25 μg/ml, arginine 7.5 μg/ml): 6.6 × 10^4 | P.F.U. Count (Herpes simplex II virus; compound 25 μg/ml, arginine 10 μg/ml): 8.7 × 10^4 | P.F.U. Count (Herpes simplex II virus; compound 25 μg/ml, arginine 15 μg/ml): 9.6 × 10^4 | P.F.U. Count (Herpes simplex II virus; compound 25 μg/ml, arginine 20 μg/ml): 3.3 × 10^5 | P.F.U. Count (Herpes simplex II virus; compound 25 μg/ml, arginine 25 μg/ml): 3.4 × 10^5 | P.F.U. Count (Herpes simplex II virus; compound 50 μg/ml, arginine 0 μg/ml): 0 | P.F.U. Count (Herpes simplex II virus; compound 50 μg/ml, arginine 2.5 μg/ml): 0 | P.F.U. Count (Herpes simplex II virus; compound 50 μg/ml, arginine 5.0 μg/ml): 671 | P.F.U. Count (Herpes simplex II virus; compound 50 μg/ml, arginine 7.5 μg/ml): 5.0 × 10^4 | P.F.U. Count (Herpes simplex II virus; compound 50 μg/ml, arginine 10 μg/ml): 7.0 × 10^4 | P.F.U. Count (Herpes simplex II virus; compound 50 μg/ml, arginine 15 μg/ml): 7.9 × 10^4 | P.F.U. Count (Herpes simplex II virus; compound 50 μg/ml, arginine 20 μg/ml): 3.1 × 10^5 | P.F.U. Count (Herpes simplex II virus; compound 50 μg/ml, arginine 25 μg/ml): 3.6 × 10^5 | P.F.U. Count (Herpes simplex II virus; compound 100 μg/ml, arginine 0 μg/ml): 0 | P.F.U. Count (Herpes simplex II virus; compound 100 μg/ml, arginine 2.5 μg/ml): 0 | P.F.U. Count (Herpes simplex II virus; compound 100 μg/ml, arginine 5.0 μg/ml): 371 | P.F.U. Count (Herpes simplex II virus; compound 100 μg/ml, arginine 7.5 μg/ml): 4.2 × 10^4 | P.F.U. Count (Herpes simplex II virus; compound 100 μg/ml, arginine 10 μg/ml): 4.0 × 10^7 | P.F.U. Count (Herpes simplex II virus; compound 100 μg/ml, arginine 15 μg/ml): 5.0 × 10^4 | P.F.U. Count (Herpes simplex II virus; compound 100 μg/ml, arginine 20 μg/ml): 3.6 × 10^5 | P.F.U. Count (Herpes simplex II virus; compound 100 μg/ml, arginine 25 μg/ml): 3.1 × 10^5 | P.F.U. Count (Herpes simplex II virus; compound 200 μg/ml, arginine 0 μg/ml): 0 | P.F.U. Count (Herpes simplex II virus; compound 200 μg/ml, arginine 2.5 μg/ml): 0 | P.F.U. Count (Herpes simplex II virus; compound 200 μg/ml, arginine 5.0 μg/ml): 191 | P.F.U. Count (Herpes simplex II virus; compound 200 μg/ml, arginine 7.5 μg/ml): 1.0 × 10^4 | P.F.U. Count (Herpes simplex II virus; compound 200 μg/ml, arginine 10 μg/ml): 1.8 × 10^4 | P.F.U. Count (Herpes simplex II virus; compound 200 μg/ml, arginine 15 μg/ml): 6.8 × 10^4 | P.F.U. Count (Herpes simplex II virus; compound 200 μg/ml, arginine 20 μg/ml): 3.2 × 10^5 | P.F.U. Count (Herpes simplex II virus; compound 200 μg/ml, arginine 25 μg/ml): 3.0 × 10^5 | P.F.U. Count (Herpes simplex II virus; compound 300 μg/ml, arginine 0 μg/ml): 0 | P.F.U. Count (Herpes simplex II virus; compound 300 μg/ml, arginine 2.5 μg/ml): 0 | P.F.U. Count (Herpes simplex II virus; compound 300 μg/ml, arginine 5.0 μg/ml): 169 | P.F.U. Count (Herpes simplex II virus; compound 300 μg/ml, arginine 7.5 μg/ml): 1.1 × 10^7 | P.F.U. Count (Herpes simplex II virus; compound 300 μg/ml, arginine 10 μg/ml): 1.9 × 10^4 | P.F.U. Count (Herpes simplex II virus; compound 300 μg/ml, arginine 15 μg/ml): 2.7 × 10^4 | P.F.U. Count (Herpes simplex II virus; compound 300 μg/ml, arginine 20 μg/ml): 3.1 × 10^5 | P.F.U. Count (Herpes simplex II virus; compound 300 μg/ml, arginine 25 μg/ml): 3.3 × 10^5 | P.F.U. Count (Herpes simplex II virus; compound 400 μg/ml, arginine 0 μg/ml): 0 | P.F.U. Count (Herpes simplex II virus; compound 400 μg/ml, arginine 2.5 μg/ml): 0 | P.F.U. Count (Herpes simplex II virus; compound 400 μg/ml, arginine 5.0 μg/ml): 671 | P.F.U. Count (Herpes simplex II virus; compound 400 μg/ml, arginine 7.5 μg/ml): 1.9 × 10^3 | P.F.U. Count (Herpes simplex II virus; compound 400 μg/ml, arginine 10 μg/ml): 1.7 × 10^4 | P.F.U. Count (Herpes simplex II virus; compound 400 μg/ml, arginine 15 μg/ml): 2.0 × 10^4 | P.F.U. Count (Herpes simplex II virus; compound 400 μg/ml, arginine 20 μg/ml): 3.0 × 10^5 | P.F.U. Count (Herpes simplex II virus; compound 400 μg/ml, arginine 25 μg/ml): 3.3 × 10^5 | P.F.U. Count (Herpes simplex II virus; compound 500 μg/ml, arginine 0 μg/ml): 0 | P.F.U. Count (Herpes simplex II virus; compound 500 μg/ml, arginine 2.5 μg/ml): 0 | P.F.U. Count (Herpes simplex II virus; compound 500 μg/ml, arginine 5.0 μg/ml): 239 | P.F.U. Count (Herpes simplex II virus; compound 500 μg/ml, arginine 7.5 μg/ml): 6.7 × 10^3 | P.F.U. Count (Herpes simplex II virus; compound 500 μg/ml, arginine 10 μg/ml): 1.3 × 10^4 | P.F.U. Count (Herpes simplex II virus; compound 500 μg/ml, arginine 15 μg/ml): 1.4 × 10^4 | P.F.U. Count (Herpes simplex II virus; compound 500 μg/ml, arginine 20 μg/ml): 2.4 × 10^5 | P.F.U. Count (Herpes simplex II virus; compound 500 μg/ml, arginine 25 μg/ml): 2.9 × 10^5
